The supplement of paper PMC10307832

Columns and labels:
Test in all cases: relative viability (nuclei count vs DMSO), 5 days (fraction); higher = more cells survive
EKVX = system: EKVX
How it was run: (§1)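 Relative viability is defined as nuclei in treated wells over nuclei in vehicle wells. Duplicate plates were run and medians reported. Lung cancer cell lines in 1536-well plates were dosed by pin tool one day after seeding, with one drug or with a fixed anchor-drug dose plus five library-drug doses (not always all listed) in √10 steps, and nuclei were counted after 5 days.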

EMC-BAC-2 = system: EMC-BAC-2
How it was run: as §1

H3255 = system: H3255
How it was run: as §1

HARA = system: HARA
How it was run: as §1

HCC-15 = system: HCC-15
How it was run: as §1

HCC-827 = system: HCC-827
How it was run: as §1

LC-2-ad = system: LC-2-ad
How it was run: as §1

LCLC-97TM1 = system: LCLC-97TM1
How it was run: as §1

LU99A = system: LU99A
How it was run: as §1

NCI-H1437 = system: NCI-H1437
How it was run: as §1

NCI-H1792 = system: NCI-H1792
How it was run: as §1

NCI-H1793 = system: NCI-H1793
How it was run: as §1

NCI-H1915 = system: NCI-H1915
How it was run: as §1

NCI-H1944 = system: NCI-H1944
How it was run: as §1

NCI-H2126 = system: NCI-H2126
How it was run: as §1

NCI-H23 = system: NCI-H23
How it was run: as §1

NCI-H322M = system: NCI-H322M
How it was run: as §1

NCI-H460 = system: NCI-H460
How it was run: as §1

NCI-H661 = system: NCI-H661
How it was run: as §1

PC-3 [JPC-3] = system: PC-3 [JPC-3]
How it was run: as §1

SK-LU-1 = system: SK-LU-1
How it was run: as §1

For O=c1[nH]c2ccccc2n1C1CCN(CCCC(c2ccc(F)cc2)c2ccc(F)cc2)CC1 [Pimozide] + CS(=O)(=O)CCNCc1ccc(-c2ccc3ncnc(Nc4ccc(OCc5cccc(F)c5)c(Cl)c4)c3c2)o1 [Lapatinib] (partner 2 µM), the relative viability (EKVX; first compound 0.253 µM) was 0.177, the relative viability (EKVX; first compound 0.8 µM) was 0.221 and the relative viability (EKVX; first compound 2.53 µM) was 0.216. The relative viability (EKVX; first compound 8 µM) was 0.464, the relative viability (EMC-BAC-2; first compound 0.08 µM) was 0.865 and the relative viability (EMC-BAC-2; first compound 0.253 µM) was 0.832. It also gave a relative viability (EMC-BAC-2; first compound 0.8 µM) of 0.843, a relative viability (EMC-BAC-2; first compound 2.53 µM) of 0.885 and a relative viability (EMC-BAC-2; first compound 8 µM) of 0.868. For the same compound, the relative viability (H3255; first compound 0.253 µM) was 0.281, the relative viability (H3255; first compound 0.8 µM) was 0.266 and the relative viability (H3255; first compound 2.53 µM) was 0.229. It also gave a relative viability (H3255; first compound 8 µM) of 0.254, a relative viability (HARA; first compound 0.08 µM) of 0.765 and a relative viability (HARA; first compound 0.253 µM) of 0.963. The relative viability (HARA; first compound 0.8 µM) was 0.755, the relative viability (HARA; first compound 2.53 µM) was 0.776 and the relative viability (HARA; first compound 8 µM) was 0.561. It also gave a relative viability (HCC-15; first compound 0.08 µM) of 0.857, a relative viability (HCC-15; first compound 0.253 µM) of 0.889 and a relative viability (HCC-15; first compound 0.8 µM) of 0.701. For the same compound, the relative viability (HCC-15; first compound 2.53 µM) was 0.791, the relative viability (HCC-15; first compound 8 µM) was 0.777 and the relative viability (HCC-827; first compound 0.253 µM) was 0.205. The relative viability (HCC-827; first compound 0.8 µM) was 0.189, the relative viability (HCC-827; first compound 2.53 µM) was 0.179 and the relative viability (HCC-827; first compound 8 µM) was 0.194. For the same compound, the relative viability (LC-2-ad; first compound 0.08 µM) was 0.943, the relative viability (LC-2-ad; first compound 0.253 µM) was 0.918 and the relative viability (LC-2-ad; first compound 0.8 µM) was 0.918. For the same compound, the relative viability (LC-2-ad; first compound 2.53 µM) was 0.949, the relative viability (LC-2-ad; first compound 8 µM) was 0.6 and the relative viability (LCLC-97TM1; first compound 0.08 µM) was 0.957. For the same compound, the relative viability (LCLC-97TM1; first compound 0.253 µM) was 0.856, the relative viability (LCLC-97TM1; first compound 0.8 µM) was 0.957 and the relative viability (LCLC-97TM1; first compound 2.53 µM) was 0.981. For the same compound, the relative viability (LCLC-97TM1; first compound 8 µM) was 0.814, the relative viability (LU99A; first compound 0.08 µM) was 0.969 and the relative viability (LU99A; first compound 0.253 µM) was 0.982. For the same compound, the relative viability (LU99A; first compound 0.8 µM) was 0.757, the relative viability (LU99A; first compound 2.53 µM) was 1.03 and the relative viability (LU99A; first compound 8 µM) was 0.888. For the same compound, the relative viability (NCI-H1437; first compound 0.08 µM) was 0.858, the relative viability (NCI-H1437; first compound 0.253 µM) was 0.849 and the relative viability (NCI-H1437; first compound 0.8 µM) was 0.801. It also gave a relative viability (NCI-H1437; first compound 2.53 µM) of 0.636, a relative viability (NCI-H1437; first compound 8 µM) of 0.539 and a relative viability (NCI-H1792; first compound 0.08 µM) of 0.888. It also gave a relative viability (NCI-H1792; first compound 0.253 µM) of 0.784, a relative viability (NCI-H1792; first compound 0.8 µM) of 0.83 and a relative viability (NCI-H1792; first compound 2.53 µM) of 0.846. For the same compound, the relative viability (NCI-H1792; first compound 8 µM) was 0.869, the relative viability (NCI-H1793; first compound 0.08 µM) was 0.785 and the relative viability (NCI-H1793; first compound 0.253 µM) was 0.641. The relative viability (NCI-H1793; first compound 0.8 µM) was 0.593, the relative viability (NCI-H1793; first compound 2.53 µM) was 0.481 and the relative viability (NCI-H1793; first compound 8 µM) was 0.654. For the same compound, the relative viability (NCI-H1915; first compound 0.08 µM) was 1.03, the relative viability (NCI-H1915; first compound 0.253 µM) was 0.927 and the relative viability (NCI-H1915; first compound 0.8 µM) was 0.585. It also gave a relative viability (NCI-H1915; first compound 2.53 µM) of 0.947, a relative viability (NCI-H1915; first compound 8 µM) of 0.926 and a relative viability (NCI-H1944; first compound 0.08 µM) of 0.802. For the same compound, the relative viability (NCI-H1944; first compound 0.253 µM) was 0.76, the relative viability (NCI-H1944; first compound 0.8 µM) was 0.62 and the relative viability (NCI-H1944; first compound 2.53 µM) was 0.772. The relative viability (NCI-H1944; first compound 8 µM) was 0.794, the relative viability (NCI-H2126; first compound 0.08 µM) was 0.743 and the relative viability (NCI-H2126; first compound 0.253 µM) was 0.675. For the same compound, the relative viability (NCI-H2126; first compound 0.8 µM) was 0.708, the relative viability (NCI-H2126; first compound 2.53 µM) was 0.724 and the relative viability (NCI-H2126; first compound 8 µM) was 0.766. The relative viability (NCI-H23; first compound 0.08 µM) was 0.938, the relative viability (NCI-H23; first compound 0.253 µM) was 1.01 and the relative viability (NCI-H23; first compound 0.8 µM) was 1.06. It also gave a relative viability (NCI-H23; first compound 2.53 µM) of 0.847, a relative viability (NCI-H23; first compound 8 µM) of 0.922 and a relative viability (NCI-H322M; first compound 0.253 µM) of 0.56. The relative viability (NCI-H322M; first compound 0.8 µM) was 0.584, the relative viability (NCI-H322M; first compound 2.53 µM) was 0.635 and the relative viability (NCI-H322M; first compound 8 µM) was 0.525. It also gave a relative viability (NCI-H460; first compound 0.08 µM) of 1.06, a relative viability (NCI-H460; first compound 0.253 µM) of 0.859 and a relative viability (NCI-H460; first compound 0.8 µM) of 0.949. The relative viability (NCI-H460; first compound 2.53 µM) was 0.856, the relative viability (NCI-H460; first compound 8 µM) was 0.826 and the relative viability (NCI-H661; first compound 0.08 µM) was 0.46. The relative viability (NCI-H661; first compound 0.253 µM) was 0.464, the relative viability (NCI-H661; first compound 0.8 µM) was 0.451 and the relative viability (NCI-H661; first compound 2.53 µM) was 0.413. For the same compound, the relative viability (NCI-H661; first compound 8 µM) was 0.467, the relative viability (PC-3 [JPC-3]; first compound 0.253 µM) was 0.414 and the relative viability (PC-3 [JPC-3]; first compound 0.8 µM) was 0.409. For the same compound, the relative viability (PC-3 [JPC-3]; first compound 2.53 µM) was 0.441, the relative viability (PC-3 [JPC-3]; first compound 8 µM) was 0.406 and the relative viability (SK-LU-1; first compound 0.08 µM) was 0.773. For the same compound, the relative viability (SK-LU-1; first compound 0.253 µM) was 0.846, the relative viability (SK-LU-1; first compound 0.8 µM) was 0.859 and the relative viability (SK-LU-1; first compound 2.53 µM) was 0.826. For the same compound, the relative viability (SK-LU-1; first compound 8 µM) was 0.731.
